Test results reported in ChEMBL document CHEMBL5050832, “Compounds and methods for regulating, limiting, or inhibiting avil expression” (2020).
Active and inactive are the calls of the source. No cut-off for these calls is given here.

Key:
[1] = system: U-87 MG; assay: Antiproliferative activity against human U87 cells; type: functional, cell-based, U-87MG ATCC
[2] = Antiproliferative activity against human astrocytes; type: functional, cell-based; conditions: Astrocyte
[3] = system: RD; assay: Antiproliferative activity against human RD cells at 20 uM assessed as decrease in cell number measured by crystal violet staining method relative to control; type: functional, cell-based
[4] = system: Mesenchymal stem cells; assay: Antiproliferative activity against human mesenchymal stem cells; type: functional, cell-based
[5] = system: SJRH30; assay: Antiproliferative activity against human Rh30 cells at 20 uM assessed as decrease in cell number measured by crystal violet staining method relative to control; type: functional, cell-based
[6] = system: RD; assay: Antiproliferative activity against human RD cells; type: functional, cell-based
[7] = system: U-87MG ATCC; assay: Downregulation of LIN28B expression in human U87 cells measured by qRT-PCR assay; type: functional, cell-based
[8] = system: Mesenchymal stem cells; assay: Antiproliferative activity against human mesenchymal stem cells at 20 uM assessed as decrease in cell number measured by crystal violet staining method relative to control; type: functional, cell-based
[9] = species: Homo sapiens; assay: Binding affinity towards recombinant AVIL (unknown origin) measured by thermal shift assay
[10] = system: SJRH30; assay: Antiproliferative activity against human Rh30 cells; type: functional, cell-based

| IC50 [1] | Activity [9] | Compound | IC50 [2] | Activity [3] | Activity [4] | Activity [5] | Activity [6] | Activity [7] | Activity [8] | Activity [10] |
| --- | --- | --- | --- | --- | --- | --- | --- | --- | --- | --- |
| 8 µM | – | Cc1cc(N2CCCC(CO)(CCCc3ccccc3)C2)nc(N)n1 (centres undefined) | 5 µM | – | – | – | – | – | – | – |
| – | Active | Nc1nccc(N2CCCC(CO)(CCCc3ccccc3)C2)n1 (centres undefined) | – | Active | inactive | Active | Active | Active | inactive | Active |
| – | Active | CN(Cc1ccc(Oc2ccccc2)cc1)C(=O)[C@@H]1C[C@@H](O)CN1 | – | – | – | – | – | Active | – | – |
| – | Active | c1ccc(CCC2CCN(CC3[C@H]4CNC[C@@H]34)CC2)cc1 (some centres undefined) | – | – | – | – | – | Active | – | – |
